# What was measured:
# [1] = target: T1, hERG channel (Homo sapiens, UniProt Q12809); assay: Predictor hERG fluorescence polarization (FP) binding assay
# T1 construct: purchased
# Protocol: • a. Primary stock solutions of 3 mM CK and astemizole in 100% DMSO were diluted in 3-fold serial dilutions in the same solvent to obtain 16 different concentrations ranging from 3 mM to […]. These solutions were further diluted 25-fold with FP (fluorescence polarization) assay buffer and then transferred to the assay plate. • b. Each test solution in the assay plate was further diluted 4-fold with FP assay buffer. Predictor™ hERG membrane preparations were thawed at room temperature and sonicated. Predictor™ hERG Tracer Red (250 nM) was diluted to 4 nM with hERG FP assay buffer. All experiments were performed in FP assay buffer containing […].
# • a. The FP assay was carried out using Predictor™ hERG Fluorescence Polarization Assay Kit. The binding assay was conducted following the manufacturer's recommended protocol with some modifications. Aliquots (5 μL) of each concentration of test article of reference were pipetted into the appropriate wells of a black 384-well micro-plate containing 10 μL of hERG membrane and 5 μL of 4 nM fluorescent tracer and covered with plate lid to protect the reagents exposed to from light. • b. The experiments were performed using triplicate wells for each concentration. Following a 3-hour incubation at room temperature, the microplates were read on a Tecan Infinite® F200 plate reader using polarized excitation filter setting at 535 nm and emission filter setting at 590 nm (25 and 20 nm bandwidths, respectively). Assay robustness was assessed by measuring 16 replicates positive control wells (containing 30 μM E-4031, known hERG channel blocker, in FP assay mixture) and negative control wells (no hERG channel blocker in FP assay mixture).
# • a. To evaluate the robustness of the hERG assays, the signal-to-noise ratio was quantified by calculating Z′-factor for each assay. In statistics, the Z′-factor provides a way to evaluate the quality of the assay. […]. Z′-factor values were determined using the blank subtracted polarization values from 16 wells of • negative and positive controls using the formula of Zhang et al. […]
# [2] = target: T2, CYP2B6 (Homo sapiens, UniProt P20813); assay: Cytochrome P450 inhibition in human liver microsomes using LC-MS/MS, CYP2B6; assay type: in vitro ADME
# T2 construct: with pooled human liver microsomes; from tissue; host or cells: pooled human liver microsomes
# T2 sequence (P20813 1-491): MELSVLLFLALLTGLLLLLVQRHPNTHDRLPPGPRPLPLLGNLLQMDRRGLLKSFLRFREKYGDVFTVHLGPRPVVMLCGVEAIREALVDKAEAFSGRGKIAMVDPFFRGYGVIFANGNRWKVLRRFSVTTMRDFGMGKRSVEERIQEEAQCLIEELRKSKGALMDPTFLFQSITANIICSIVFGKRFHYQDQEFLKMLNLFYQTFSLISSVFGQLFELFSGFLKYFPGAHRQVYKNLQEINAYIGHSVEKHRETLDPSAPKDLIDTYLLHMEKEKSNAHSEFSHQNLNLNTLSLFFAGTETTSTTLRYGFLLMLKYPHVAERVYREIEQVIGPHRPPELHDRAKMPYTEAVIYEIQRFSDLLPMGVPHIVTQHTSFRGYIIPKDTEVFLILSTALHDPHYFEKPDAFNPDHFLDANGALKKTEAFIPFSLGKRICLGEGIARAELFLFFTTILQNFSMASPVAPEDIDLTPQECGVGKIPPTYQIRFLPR
# Protocol: (§1) In IC50 shift experiments, CK (0.2 μL prepared in DMSO) was pre-incubated for 30 min at 37° C., at 8 different concentrations, with pooled human liver microsomes (0.1-1 mg/mL, depending on which enzyme was assessed) in the absence or presence of 1 mM NADPH in 100 μL of potassium phosphate buffer (100 mM, pH 7.4) and MgCl2 (2.5 mM). After the pre-incubation, a substrate mixture containing a probe substrate in 100 μL of potassium phosphate buffer (100 mM, pH 7.4), MgCl2 (2.5 mM), and NADPH (1 mM) was added for measurement of the corresponding P450 activities. Incubations were terminated by addition of 200 μL methanol. Samples were then extracted and centrifuged and the supernatant was subjected to validated LC-MS/MS analysis.
# [3] = target: T3, CYP2C8 (Homo sapiens, UniProt P10632); assay: Cytochrome P450 inhibition in human liver microsomes using LC-MS/MS, CYP2C8; assay type: in vitro ADME
# T3 construct: with pooled human liver microsomes; from tissue; host or cells: pooled human liver microsomes
# T3 sequence (P10632 1-490): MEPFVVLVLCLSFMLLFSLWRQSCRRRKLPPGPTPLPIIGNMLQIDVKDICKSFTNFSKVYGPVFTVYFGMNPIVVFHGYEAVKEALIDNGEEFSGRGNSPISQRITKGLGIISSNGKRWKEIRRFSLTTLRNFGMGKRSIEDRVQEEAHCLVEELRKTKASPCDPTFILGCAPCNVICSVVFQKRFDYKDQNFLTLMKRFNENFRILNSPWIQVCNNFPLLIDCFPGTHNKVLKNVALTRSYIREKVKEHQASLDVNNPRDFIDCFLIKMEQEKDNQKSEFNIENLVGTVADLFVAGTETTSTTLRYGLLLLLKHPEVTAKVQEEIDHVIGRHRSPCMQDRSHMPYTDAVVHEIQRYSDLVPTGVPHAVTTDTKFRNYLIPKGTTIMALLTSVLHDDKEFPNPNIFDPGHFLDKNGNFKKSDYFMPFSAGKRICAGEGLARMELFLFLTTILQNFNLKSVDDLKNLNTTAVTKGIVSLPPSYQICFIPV
# Protocol: as §1
# [4] = target: T4, CYP2C19 (Homo sapiens, UniProt P33261); assay: Cytochrome P450 inhibition in human liver microsomes using LC-MS/MS, CYP2C19; assay type: in vitro ADME
# T4 construct: with pooled human liver microsomes; from tissue; host or cells: pooled human liver microsomes
# Protocol: as §1
# [5] = Releasing kinetics of ginsenoside CK from three-layer coated stent (CK DES), FIG. 2; assay type: physicochemical
# [6] = 50 μM, 30 min pre-incubation in the presence or absence of NADPH
# T1 sequence (Q12809 whole entry): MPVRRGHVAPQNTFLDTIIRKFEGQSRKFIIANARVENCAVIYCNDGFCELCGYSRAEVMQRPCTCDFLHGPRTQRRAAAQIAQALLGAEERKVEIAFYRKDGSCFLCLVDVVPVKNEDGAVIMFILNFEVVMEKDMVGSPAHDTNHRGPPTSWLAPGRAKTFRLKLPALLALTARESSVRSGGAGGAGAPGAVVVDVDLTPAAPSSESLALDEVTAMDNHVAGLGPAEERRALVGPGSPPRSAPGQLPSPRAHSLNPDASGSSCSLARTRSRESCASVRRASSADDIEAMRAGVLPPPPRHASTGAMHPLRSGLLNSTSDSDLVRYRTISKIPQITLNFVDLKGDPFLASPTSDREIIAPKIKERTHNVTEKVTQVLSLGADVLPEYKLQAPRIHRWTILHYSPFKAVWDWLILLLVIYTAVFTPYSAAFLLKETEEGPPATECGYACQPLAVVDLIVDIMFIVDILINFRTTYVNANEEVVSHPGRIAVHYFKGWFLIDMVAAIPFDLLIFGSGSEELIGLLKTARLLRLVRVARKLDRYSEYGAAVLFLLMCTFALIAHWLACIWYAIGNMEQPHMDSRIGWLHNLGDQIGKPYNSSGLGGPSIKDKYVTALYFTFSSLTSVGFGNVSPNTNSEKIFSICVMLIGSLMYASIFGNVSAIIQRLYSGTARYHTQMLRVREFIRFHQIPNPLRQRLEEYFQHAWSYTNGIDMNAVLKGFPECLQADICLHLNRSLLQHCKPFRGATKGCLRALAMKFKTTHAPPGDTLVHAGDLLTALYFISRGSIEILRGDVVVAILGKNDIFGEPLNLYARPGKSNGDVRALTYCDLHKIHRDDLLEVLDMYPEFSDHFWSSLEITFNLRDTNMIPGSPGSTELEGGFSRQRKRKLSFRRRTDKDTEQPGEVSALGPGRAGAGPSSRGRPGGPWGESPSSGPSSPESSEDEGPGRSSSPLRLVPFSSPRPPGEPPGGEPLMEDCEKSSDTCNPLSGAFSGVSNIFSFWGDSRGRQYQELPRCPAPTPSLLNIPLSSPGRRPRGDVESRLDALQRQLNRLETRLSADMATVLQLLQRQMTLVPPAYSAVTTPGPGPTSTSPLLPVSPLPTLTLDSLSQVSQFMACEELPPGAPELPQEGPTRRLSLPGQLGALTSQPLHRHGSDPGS
# T4 sequence (P33261 whole entry): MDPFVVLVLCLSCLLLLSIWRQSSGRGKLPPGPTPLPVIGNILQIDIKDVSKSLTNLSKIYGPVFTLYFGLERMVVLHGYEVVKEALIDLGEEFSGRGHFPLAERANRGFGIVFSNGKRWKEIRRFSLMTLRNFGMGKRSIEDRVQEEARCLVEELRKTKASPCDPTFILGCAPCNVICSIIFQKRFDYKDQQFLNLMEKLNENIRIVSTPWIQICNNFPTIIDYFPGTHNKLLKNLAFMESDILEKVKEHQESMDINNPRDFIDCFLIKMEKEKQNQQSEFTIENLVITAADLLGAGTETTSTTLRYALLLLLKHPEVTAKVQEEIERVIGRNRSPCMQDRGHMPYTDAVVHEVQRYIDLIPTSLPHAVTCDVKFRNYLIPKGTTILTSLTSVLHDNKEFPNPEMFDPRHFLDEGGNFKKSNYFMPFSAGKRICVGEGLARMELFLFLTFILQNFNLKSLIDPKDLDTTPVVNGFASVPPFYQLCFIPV
structure (smiles),measurement,setting,value
"CC(C)=CCC[C@](C)(O[C@@H]1O[C@H](CO)[C@@H](O)[C@H](O)[C@H]1O)[C@H]1CC[C@]2(C)[C@@H]1[C@H](O)C[C@@H]1[C@@]3(C)CC[C@H](O)C(C)(C)[C@@H]3CC[C@]12C [CK, Ginsenoside compound K]",blocking effect for binding of tracer to the hERG membrane protein,"[1]; at 30 μM, triplicate measurements",minor blocking effect
same,risk classification of potency for hERG blocker,[1]; classified from IC50,weak ligand
same,IC50,"[1]; hERG FP assay, triplicate measurements",> 30 µM
same,IC50,"[2]; pooled human liver microsomes, substrate Bupropion",14.8 µM
same,IC50 shift (fold difference),[2]; ratio of IC50 with −NADPH to IC50 with +NADPH in the 30 min pre-incubation,1.08 fold
same,inhibition at concentration of 50 μM,[3]; [6],did not inhibit
same,IC50,"[3]; pooled human liver microsomes, substrate Amodiaquine",> 50 µM
same,inhibition at concentration of 50 μM,[4]; [6],did not inhibit
same,IC50,"[4]; pooled human liver microsomes, substrate S-Mephenytoin",> 50 µM
same,amount of residual drug in the stent,[5]; after 90 days of drug release,beyond the detection/quantitation limit
same,drug released (initial burst),[5]; within one month,~80%

# Reference: US20260199564A1, “METHOD OF PREVENTING BLOOD COAGULATION AND DRUG-ELUTING IMPLANT FOR PERCUTANEOUS CORONARY INTERVENTION” (priority 2023, published 2026)
